Test [1] deals with prostate cancer cell lines. The note with it: background statement; cited from earlier work.
In test [2] the test system is PC-3M cells. Kind of test: 3H-thymidine incorporation (DNA synthesis) in PC-3M cells. In kind it is cell-based. The note with it: 24 hours, FIG. 1. As to the method: FIG. 1 illustrates the effect of exogenously added prostatic NEM on DNA synthesis of an aggressive prostate cancer (PC-3M) cell line. To obtain the results shown in FIG. 1, PC-3M cells were seeded at a density of 10,000 cells per well and incubated overnight in the complete medium. The cells were then washed with and incubated in serum-free medium containing the agents and 0.5 μCi of 3H-thymidine for 24 hours. At the end of incubation, the cells were washed three times with PBS-1 μM thymidine and the incorporated radioactivity was determined in TCA-precipitable fraction.
If NEM-induced DNA synthesis may influence proliferative activity of a prostate tumor and other cancer cells, then its immunoneutralization should reduce the growth. This hypothesis was tested by studying the rate of 3H-thymidine incorporation in PC-3M prostate cancer cells. The cells were treated either with non-immune antiserum or anti-NEM antiserum at a final dilution of 1:50.
For orientation: Uptake of a labelled nucleoside into DNA is a usual measure of proliferation.

A further test has as its system OVCA-5. As to the kind of experiment: Growth of non-prostate cancer cells (bone-derived cell lines). In kind it is cell-based.
The test system of test [3] is PC-3M cells. As to the kind of experiment: Matrigel in vitro invasion of PC-3M cells. In kind it is cell-based. How it is done:
FIG. 2 illustrates the effect of NEM on in vitro invasion of PC-3M cells. The experiment used 3 well Matrigel invasion chambers (Becton Dickinson, Bedford, Mass.). Approximately 200,000 PC-3M cells were seeded in the upper chamber in RPMI 1640 medium containing 0.1% BSA (Sigma, St. Louis), 4 mM L-glutamine, 100 IU/ml penicillin G and 100 ug/ml streptomycin. The lower chamber medium contained chemoattractant medium consisting of 80% complete medium (RPMI 1640, 12% horse serum, 4% […] fetal calf serum, 4 mM L-glutamine, 100 IU/ml penicillin G and […]). Different concentrations of NEM or conditioned media from NEM-PC3-M cells that express NEM (dilutions ranging from 1 to 5) were added to the upper chamber. The experiments were carried out for 72 hours. At the end of the incubation period the Matrigel was scraped off using cotton swabs and the top insert was fixed and stained using Diff Quick staining (Dade Diagnostics, Aguada, PR). The relative invasive potential was determined by normalizing for cell growth. This was done by plating 100,000 cells in six well dishes in chemoattractant medium and determining the relative growth of cells after 72 hours. The number of cells per 100×field were expressed as mean +/−SEM.
FIG. 4 illustrates the effect of the anti-NEM antiserum on invasion of PC-3M cells. […]

For test [4], the system named is NEM receptors on prostate cancer cells. As to the kind of experiment: Binding of NEM to its receptors on prostate cancer cells.
The target in test [5] is NEM receptor on prostate cancer cells. Kind of test: cell-based or functional assay.

Where no end group is shown, it is not given here.

In the case of Pindobind, in test [1], the “growth of prostate cancer cell lines” value was “inhibit the growth”.

In the case of “NEM: novel neuroendocrine growth factor or marker isolated from prostate cancer cells; amino acid SEQ ID NO: 6 expressed in PC-3M cells (RTCVLGYLHIVPEFIESQLLGLLSPVSL; listed as Homo sapiens)”, in the test with PC-3M cells [2] (PC-3M cells), the “concentration at which the increase in DNA synthesis was significant” value is reported as at least 10 nM. Further, in the test with PC-3M cells [2] (exogenously added NEM, serum-free medium), the “3H-thymidine incorporation (DNA synthesis)” value is on record as “stimulated 3H-thymidine incorporation in a dose-dependent fashion”. Besides, the “growth of non-prostate cancer cells” value in the test on OVCA-5 was “stimulates the growth”. In addition, in the test with PC-3M cells [3] (all concentrations of NEM significant vs 0, P<0.05, FIG. 2), the “invasiveness of PC-3M cells” value is “in a dose-dependent fashion significantly increases the invasiveness”. In the test on PC-3M cells [3] (from 0M to 10^-6M NEM, 72 hours, FIG. 2), this molecule displayed an increase in invasiveness of 70%. In test [4], the receptor binding affinity entry is recorded as “high affinity (low nM)”.

As for RTCVLGYLHIVPEFIESQLLGLLSPVSL (ligand, also: 125I-labelled form used in RIA) [neuroendocrine growth factor or marker (NEM)], in test [5], the 3H-thymidine incorporation (DNA synthesis) in PC-3M cells is above 10 nM and the in vitro Matrigel invasion of PC-3M cells was found to be 70%.
